The results in this text go back to US9688613B2 (Jiva Pharma, Inc., priority 2015, dated 2017).

In this test the test system is GABA-A receptors. In words: Displacement of [3H] muscimol from GABA-A receptors. In kind it is binding. The method, then:
Muscimol is the principal psychoactive constituent of Amanita muscaria and related species of mushroom.
These tests were performed using the procedure described by Tomasz Plech et. al., Studies on anticonvulsant activity of 4-alkyl-1,2,4-triazole-3-thiones and their effect on GABAergic system; European J. of Medicinal Chem. 2014, 86, 690-699.
For orientation: Loss of bound radioactivity is the signal in a displacement assay; it reports binding, not function.

On to `CC/C=C\C/C=C\C/C=C\C/C=C\C/C=C\CCCC(CN)CC(=O)O` (centres unmarked) [Example 2, 3-Aminomethyl-docosa-7,10,13,16,19-pentaenoic Acid], for which the “% of [3H]-MUSCIMOL inhibition” value is, setting by setting: (LOG OF MOLAR CONC. −4) 15%; (LOG OF MOLAR CONC. −5) 10%.

Regarding `CC/C=C\C/C=C\C/C=C\C/C=C\C/C=C\C/C=C\CCC(CN)CC(=O)O` (centres unmarked) [Example 1, 3-Aminomethyl-tetracosa-6,9,12,15,18,21-hexaenoic Acid], the “% of [3H]-MUSCIMOL inhibition” value was found to be 10% (LOG OF MOLAR CONC. −4) and 0% (LOG OF MOLAR CONC. −5).

In the case of `CC(C)C[C@H](CN)CC(=O)O` [Pregabalin, S-isobutylgaba, reference compound], the “% of [3H]-MUSCIMOL inhibition” value is 12% (LOG OF MOLAR CONC. −4) and 0% (LOG OF MOLAR CONC. −5).

Take `CC/C=C\C/C=C\C/C=C\CCCCCCCC(CN)CC(=O)O` (centres unmarked) [Example 3, 3-Aminomethyl-eicosa-11,14,17-trienoic Acid]: the “% of [3H]-MUSCIMOL inhibition” value is, setting by setting: (LOG OF MOLAR CONC. −4) 8%; (LOG OF MOLAR CONC. −5) 0%.
